Counter-ions that a name gives are not always drawn.
Biological target: MCH receptor (Homo sapiens, UniProt Q99705)
Experiment: FLIPR/FDSS6000 functional assay: intracellular Ca2+ changes evoked by MCH
Type: cell-based
Conditions: class by percent of control at 10^−7 M or by IC50; antagonist activity, 50 nM of MCH; read-out: class
Summary of the method: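 Cells expressing a constitutively active, non-endogenous MCH receptor were loaded with 4 μM Fluo-4-AM for 1 hr at 37 °C. They were then preincubated 30 min with compound before MCH addition, using 50 nM MCH for antagonist testing. [Ca2+]i transients were monitored at Ex 488/Em 530 nm for 290 s by FLIPR or FDSS.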

IC50	Compound
> 200 nM	Cc1nc(N[C@H]2CC[C@@H](C(=O)Oc3ccc(F)c(Cl)c3)CC2)cc(N(C)C)n1 [Example 194, 3-Chloro-4-fluorophenyl cis-4-{[6-(dimethylamino)-2-methylpyrimidin-4-yl]amino}-cyclohexanecarboxylate hydrochloride]
> 200 nM	Cc1nc(N[C@H]2CC[C@@H](C(=O)Nc3cc(Cl)cc(Cl)c3)CC2)cc(N(C)C)n1 [Example 195, cis-N-(3,5-Dichlorophenyl)-4-{[6-(dimethylamino)-2-methylpyrimidin-4-yl]amino}-cyclohexanecarboxamide hydrochloride]
> 200 nM	Cc1nc(N[C@H]2CC[C@@H](C(=O)Oc3ccc(F)c(F)c3)CC2)cc(N(C)C)n1 [Example 196, 3,4-Difluorophenyl cis-4-{[6-(dimethylamino)-2-methylpyrimidin-4-yl]amino}-cyclohexanecarboxylate hydrochloride]

Compound	IC50
N^4-(cis-4-{[Bromo-2-(trifluoromethoxy)benzyl]amino}cyclohexyl)-N^2,N^2-dimethylpyrimidine-2,4-diamine dihydrochloride [Example 42]	> 200 nM

From patent US20090036448A1, “PYRIMIDINE DERIVATIVES AND METHODS OF TREATMENT RELATED TO THE USE THEREOF” (TAISHO PHARMECUTICAL CO., LTD., priority 2004, published 2009)
